Measured values from the CheMixHub drug solubility set.

Assay: xn = mol fraction of the nth substance listed, in the solute-free solvent

CN1CCN(C2=Nc3cc(Cl)ccc3Nc3ccccc32)CC1 + CC(C)O + O
solubility (g/100 g solution)
Conditions	x2 = 0.03225	x2 = 0.06974	x2 = 0.1139	x2 = 0.1666	x2 = 0.2307	x2 = 0.3103	x2 = 0.4117	x2 = 0.5454	x2 = 0.7297
278.15 K	0.00624	0.0228	0.0624	0.135	0.239	0.393	0.559	0.783	0.957
283.15 K	0.00829	0.029	0.0775	0.164	0.288	0.463	0.667	0.914	1.13
288.15 K	0.0108	0.0371	0.096	0.199	0.35	0.567	0.781	1.08	1.32
293.15 K	0.014	0.0473	0.117	0.237	0.417	0.659	0.933	1.27	1.54
298.15 K	0.0182	0.06	0.144	0.283	0.493	0.781	1.09	1.47	1.78
303.15 K	0.0233	0.0733	0.171	0.336	0.578	0.917	1.25	1.72	2.07
308.15 K	0.0298	0.0919	0.207	0.399	0.675	1.06	1.47	1.96	2.37
313.15 K	0.0368	0.113	0.249	0.472	0.803	1.22	1.69	2.24	2.68
318.15 K	0.0461	0.137	0.295	0.552	0.923	1.42	1.95	2.58	3.06
323.15 K	0.0576	0.166	0.344	0.642	1.07	1.63	2.21	2.92	3.45
328.15 K	0.071	0.203	0.407	0.739	1.23	1.85	2.53	3.33	3.91

Nc1cccc(S(=O)(=O)c2cccc(N)c2)c1 + CC(C)O + O
solubility (g/100 g solution)
Conditions	283.15 K	288.15 K	293.15 K	298.15 K	303.15 K	308.15 K	313.15 K	318.15 K	323.15 K	328.15 K
x2 = 0.03225	0.0588	0.08	0.109	0.143	0.188	0.248	0.319	0.411	0.517	0.662
x2 = 0.06974	0.109	0.146	0.196	0.259	0.34	0.424	0.549	0.698	0.874	1.09
x2 = 0.1139	0.169	0.219	0.286	0.375	0.488	0.618	0.782	0.98	1.22	1.52
x2 = 0.1666	0.236	0.312	0.396	0.516	0.657	0.834	1.05	1.3	1.59	1.98
x2 = 0.2307	0.299	0.388	0.5	0.652	0.816	1.02	1.28	1.6	1.97	2.4
x2 = 0.3103	0.36	0.459	0.599	0.751	0.954	1.2	1.51	1.84	2.24	2.73
x2 = 0.4117	0.398	0.513	0.662	0.841	1.07	1.34	1.65	2.05	2.48	3.01
x2 = 0.5454	0.424	0.54	0.702	0.895	1.11	1.4	1.71	2.14	2.62	3.17
x2 = 0.7297	0.432	0.543	0.686	0.878	1.11	1.38	1.72	2.09	2.57	3.12

OCCN(CCO)c1nc(N2CCCCC2)c2nc(N(CCO)CCO)nc(N3CCCCC3)c2n1 + CC(C)O + O
solubility (g/100 g solution)
Conditions	293.15 K	298.15 K	303.15 K	308.15 K	313.15 K	318.15 K	323.15 K	328.15 K
x2 = 0.3	4.66	6.62	8.49	11.6	14.9	19.9	27.3	32.8
x2 = 0.4	7.42	9.61	12.4	15.3	20.2	25.6	32.3	39.9
x2 = 0.5	8.69	11.8	14.9	18.1	21.7	27.7	33.4	39.5
x2 = 0.6	9.25	11.6	14.6	18	20.8	26.6	31.7	37.5
x2 = 0.7	8.37	9.97	12.7	15.8	19.1	23.7	28.6	33.6
x2 = 0.8	6.58	8.26	10.4	13.2	15.7	20	24	29
x2 = 0.9	4.8	6.08	7.64	9.93	11.6	15.1	18.8	23.2

c1ccc2[nH]c(-c3cscn3)nc2c1 + CC(C)O + O
solubility (g/100 g solution)
Conditions	283.15 K	288.15 K	293.15 K	298.15 K	303.15 K	308.15 K	313.15 K	318.15 K	323.15 K
x2 = 0.03225	0.00182	0.0023	0.00284	0.00356	0.0044	0.00539	0.00665	0.00808	0.00978
x2 = 0.06974	0.00792	0.00964	0.0123	0.015	0.0183	0.022	0.0263	0.0311	0.0368
x2 = 0.1139	0.0206	0.0251	0.0303	0.0374	0.0453	0.0539	0.064	0.0751	0.0876
x2 = 0.1666	0.0372	0.0456	0.0555	0.0669	0.0796	0.0936	0.113	0.131	0.156
x2 = 0.2307	0.0599	0.0732	0.0858	0.101	0.121	0.143	0.169	0.197	0.23
x2 = 0.3103	0.0907	0.109	0.127	0.148	0.178	0.204	0.234	0.27	0.312
x2 = 0.4117	0.131	0.154	0.181	0.213	0.249	0.287	0.329	0.379	0.433
x2 = 0.5454	0.16	0.192	0.225	0.262	0.301	0.347	0.399	0.459	0.529
x2 = 0.7297	0.197	0.23	0.268	0.309	0.36	0.413	0.47	0.534	0.6
